These are literature values, as cited in US20070014855A1, “STABLE DESLORATADINE COMPOSITIONS” (priority 2005, published 2007).

Structures are written as SMILES.

For `Clc1ccc2c(c1)CCc1cccnc1C2=C1CCNCC1` [Desloratadine, 8-chloro-6,11-dihydro-11-(4-piperidylidene)-5H-benzo[5,6]-cyclohepta[1,2-b]pyridine], the solubility in ethanol entry (ethanol) is recorded as “very soluble”. The “solubility in propylene glycol” value (propylene glycol) is “very soluble”. Besides, the solubility in water entry (water) is given as “slightly soluble”.
